Results: patent US7135480B2, “Substituted 1-benzoyl-3-cyano-pyrrolo [1,2-a] quinolines and analogs as activators of caspases and inducers of apoptosis” (Cytovia, Inc., priority 2002, dated 2006)
pEC50: −log10 of the molar value. Read-outs that look alike come from different tables or passages of the source.

Legend:
T-47D [1] = experiment: Caspase cascade activation assay (N-(Ac-DEVD)-N'-ethoxycarbonyl-R110 fluorogenic substrate) in T-47D cells; assay type: cell-based, Human; settings: for pEC50: read-out: Caspase potency EC50; for Caspase activity (Ratio): ratio of net RFU of compound to control, 0.16 to 10 μM final
Procedure: (§1) Human breast cancer cell lines T-47D and ZR-75-1 were grown according to media component mixtures designated by American Type Culture Collection +10% FCS (Invitrogen Corporation), in a 5% CO2–95% humidity incubator at 37° C. T-47D and ZR-75-1 cells were maintained at a cell density between 30 and 80% confluency and for HL-60 at a cell density of 0.1 to 0.6×10^6 cells/mL. Cells were harvested at 600×g and resuspended at 0.65×10^6 cells/mL into appropriate media +10% FCS. An aliquot of 45 μL of cells was added to a well of a 96-well microtiter plate containing 5 μL of a 10% DMSO in RPMI-1640 media solution containing 1.6 to 100 μM of 1-benzoyl-3-cyano-pyrrolo[1,2-a]quinoline or other test compound (0.16 to 10 μM final). An aliquot of 45 μL of cells was added to a well of a 96-well microtiter plate containing 5 μL of a 10% DMSO in RPMI-1640 media solution without test compound as the control sample. The samples were mixed by agitation and then incubated at 37° C. for 24 h in a 5% CO2–95% humidity incubator. After incubation, the samples were removed from the incubator and 50 μL of a solution containing 20 μM of N-(Ac-DEVD)-N′-ethoxycarbonyl-R110 fluorogenic substrate (SEQ ID NO:1) (Cytovia, Inc.; U.S. Pat. No. 6,335,429), 20% sucrose (Sigma), 20 mM DTT (Sigma), 200 mM NaCl (Sigma), 40 mM Na PIPES buffer pH 7.2 (Sigma), and 500 μg/mL lysolecithin (Calbiochem) was added. The samples were mixed by agitation and incubated at room temperature. Using a fluorescent plate reader (Model 1420 Wallac Instruments), an initial reading (T=0) was made approximately 1–2 min after addition of the substrate solution, employing excitation at 485 nm and emission at 530 nm, to determine the background fluorescence of the control sample. After approximately 3 h of incubation, the samples were read for fluorescence as above (T=3 h).
(§2) The Relative Fluorescence Unit values (RFU) were used to calculate the sample readings as follows: RFU(T=3h)−Control RFU(T=0)=Net RFU(T=3h)
(§3) The activity of caspase cascade activation was determined by the ratio of the net RFU value for 1-benzoyl-3-cyano-pyrrolo[1,2-a]quinoline to that of control samples. The EC50 (nM) was determined by a sigmoidal dose-response calculation (Prism 2.0, GraphPad Software Inc.).

ZR-75-1 = experiment: Caspase cascade activation assay (N-(Ac-DEVD)-N'-ethoxycarbonyl-R110 fluorogenic substrate) in ZR-75-1 cells; assay type: cell-based, Human; settings: for pEC50: read-out: Caspase potency EC50; for Caspase activity (Ratio): ratio of net RFU of compound to control, 0.16 to 10 μM final
Procedure: as §1, §2, §3

T-47D [2] = experiment: Inhibition of cell proliferation (GI50, CellTiter 96 AQueous One Solution) in T-47D cells; assay type: cell-based, Human; settings: read-out: GI50 (dose for 50% inhibition of cell proliferation)
Procedure: (§4) T-47D and SKBr-3 cells were grown and harvested as in Example 84. An aliquot of 90 μL of cells (2.2×10^4 cells/mL) was added to a well of a 96-well microtiter plate containing 10 μl of a 10% DMSO in RPMI-1640 media solution containing 1 nM to 100 μM of 1-benzoyl-3-cyano-pyrrolo[1,2-a]quinoline (0.1 nM to 10 μM final). An aliquot of 90 μL of cells was added to a well of a 96-well microtiter plate containing 10 μL of a 10% DMSO in RPMI-1640 media solution without compound as the control sample for maximal cell proliferation (AMax). The samples were mixed by agitation and then incubated at 37° C. for 48 h in a 5% CO2–95% humidity incubator. After incubation, the samples were removed from the incubator and 20 μL of CellTiter 96 AQUEOUS One Solution Cell Proliferation™ reagent (Promega) was added. The samples were mixed by agitation and incubated at 37° C. for 2–4 h in a 5% CO2–95% humidity incubator. Using an absorbance plate reader (Model 1420 Wallac Instruments), an initial reading (T=0) was made approximately 1–2 min after addition of the solution, employing absorbance at 490 nm. This determines the possible background absorbance of the test compounds. No absorbance for 1-benzoyl-3-cyano-pyrrolo[1,2-a]quinoline was found at 490 nm. After the 2–4 h incubation, the samples were read for absorbance as above (ATest).
(§5) Baseline for GI50 (dose for 50% inhibition of cell proliferation) of initial cell numbers were determined by adding an aliquot of 90 μL of cells or 90 μL of media, respectively, to wells of a 96-well microtiter plate containing 10 μL of a 10% DMSO in RPMI-1640 media solution. The samples were mixed by agitation and then incubated at 37° C. for 0.5 h in a 5% CO2–95% humidity incubator. After incubation, the samples were removed from the incubator and 20 μL of CellTiter 96 AQUEOUS One Solution Cell Proliferation ™ reagent (Promega) was added. The samples were mixed by agitation and incubated at 37° C. for 2–4 h in a 5% CO2–95% humidity incubator. Absorbance was read as above, (AStart) defining absorbance for initial cell number used as baseline in GI50 determinations. […]

SKBr-3 = experiment: Inhibition of cell proliferation (GI50, CellTiter 96 AQueous One Solution) in SKBr-3 cells; assay type: cell-based; settings: read-out: GI50 (dose for 50% inhibition of cell proliferation)
Procedure: as §4, §5

[3] = Homo sapiens, T47D, T-47D, 24 h incubation, sigmoidal dose-response
[4] = Homo sapiens, ZR-75-1, 24 h incubation, sigmoidal dose-response

| SMILES | pEC50 (T-47D [1]; [3]) | pEC50 (ZR-75-1; [4]) | Caspase activity (Ratio) (T-47D [1]; T-47D, 24 h incubation) | Caspase activity (Ratio) (ZR-75-1; ZR-75-1, 24 h incubation) | further results |
| --- | --- | --- | --- | --- | --- |
| N#Cc1cc(C(=O)c2ccc(N3CCCC3)cc2)n2c1ccc1ccccc12 [Example 1, 3-Cyano-1-(4-pyrrolidin-1-yl-benzoyl)-pyrrolo[1,2-a]quinoline] | 6.80 | 6.88 | 10 | 7 | GI50 (T-47D [2]; Homo sapiens, T47D, T-47D, 48 h incubation): 36 nM; GI50 (SKBr-3; Homo sapiens, SK-BR-3, SKBR-3, 48 h incubation): 42 nM |
| N#Cc1cc(C(=O)c2ccccc2)n2c3c(ccc12)CCCC3 [Example 2, 1-Benzoyl-3-cyano-6,7,8,9-tetrahydro-pyrrolo[1,2-a]quinoline] | < 5.00 | 5.28 | 1 | 2 | – |
| N#Cc1cc(C(=O)c2ccccc2)n2ccccc12 [Example 3, 3-Benzoyl-1-cyano-indolizine] | < 5.00 | < 5.00 | 1 | 1 | – |
| COc1cccc(C(=O)c2cc(C#N)c3ccc4ccccc4n23)c1 [Example 4, 3-Cyano-1-(3-methoxy-benzoyl)-pyrrollo[1,2-a]quinoline] | – | – | 12 | 10 | pEC50 (T-47D [1]; T-47D, 24 h incubation, sigmoidal dose-response): 6.33; pEC50 (ZR-75-1; ZR-75-1, 24 h incubation, sigmoidal dose-response): 6.20; GI50 (T-47D [2]; T-47D, 48 h incubation): 138 nM; GI50 (SKBr-3; SKBR-3, 48 h incubation): 93 nM |
| N#Cc1cc(C(=O)c2cccc(Br)c2)n2c1ccc1ccccc12 [Example 5, 1-(3-Bromo-benzoyl)-3-cyano-pyrrolo[1,2-a]quinoline] | – | 6.80 | – | 11 | – |
| Cc1cc2c(C#N)cc(C(=O)c3ccccc3)n2c2ccccc12 [Example 12, 1-Benzoyl-3-cyano-5-methyl-pyrrolo[1,2-a]quinoline] | 5.93 | 6.31 | 14 | 13 | – |
| N#Cc1cc(C(=O)c2ccccc2)n2c1ccc1ccccc12 [Example A, 1-benzoyl-3-cyano-pyrrolo[1,2-a]quinoline] | – | – | 7 | 10 | pEC50 (T-47D [1]; Homo sapiens, T47D, 24 h): 6.62; pEC50 (ZR-75-1; Homo sapiens, ZR-75-1, 24 h): 6.61; GI50 (T-47D [2]; Homo sapiens, T47D, 48 h): 30 nM; GI50 (SKBr-3; Homo sapiens, SK-BR-3, 48 h): 32 nM |

Further lines, with some results ahead:

| pEC50 (T-47D [1]; [3]) | pEC50 (ZR-75-1; [4]) | SMILES | Caspase activity (Ratio) (T-47D [1]; T-47D, 24 h incubation) | Caspase activity (Ratio) (ZR-75-1; ZR-75-1, 24 h incubation) | further results |
| --- | --- | --- | --- | --- | --- |
| 5.62 | 5.86 | Cc1ccc(C(=O)c2cc(C#N)c3ccc4ccccc4n23)cc1 [Example 6, 3-Cyano-1-(4-methyl-benzoyl)-pyrrolo[1,2-a]quinoline] | 12 | 14 | – |
| 6.45 | 6.73 | COc1ccc(C(=O)c2cc(C#N)c3ccc4ccccc4n23)cc1 [Example 7, 3-Cyano-1-(4-methoxy-benzoyl)-pyrrolo[1,2-a]quinoline] | 13 | 17 | – |
| 6.23 | 5.59 | N#Cc1cc(C(=O)c2ccc(Cl)cc2)n2c1ccc1ccccc12 [Example 8, 1-(4-Chloro-benzoyl)-3-cyano-pyrrolo[1,2-a]quinoline] | 12 | 11 | – |
| 6.82 | 6.82 | N#Cc1cc(C(=O)c2ccc(F)cc2)n2c1ccc1ccccc12 [Example 9, 3-Cyano-1-(4-fluoro-benzoyl)-pyrrolo[1,2-a]quinoline] | 12 | 12 | – |
| 5.66 | 5.90 | N#Cc1cc(C(=O)c2ccc([N+](=O)[O-])cc2)n2c1ccc1ccccc12 [Example 10, 3-Cyano-1-(4-nitro-benzoyl)-pyrrolo[1,2-a]quinoline] | 6 | 14 | – |
| 6.83 | 6.83 | N#Cc1cc(C(=O)c2ccc(N)cc2)n2c1ccc1ccccc12 [Example 11, 1-(4-Amino-benzoyl)-3-cyano-pyrrolo[1,2-a]quinoline] | 17 | 15 | – |
| < 5.00 | 5.25 | Cc1ccc2c(ccc3c(C#N)cc(C(=O)c4ccccc4)n32)c1 [Example 13, 1-Benzoyl-3-cyano-7-methyl-pyrrolo[1,2-a]quinoline] | 1 | 2 | – |
